pIC50: −log10 of the molar value. Read-outs that look alike come from different tables or passages of the source.
Legend:
Jily = assay: MTS proliferation assay, Jily; type: cell-based; conditions: 72 h incubation, read-out: MTS proliferation assay IC 50 Jily
Procedure, shortened: (§1)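 Seed cells in complete RPMI-1640 medium and allow 24 h attachment. Add compounds to final 10 μM, 3 μM, 1 μM or 0.3 μM and incubate 72 h at 37° C. Add MTS, incubate 3 h more, then measure absorption at 492 nm.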

[1] = system: adherent cells or suspension cells; assay: Hoechst 33342 nuclear staining (fraction of apoptotic nuclei); type: cell-based; set-up: key: 0 relating to no activity; 1 relating to weak activity comprising less than 70% of the cells; score 2 relating to strong activity comprising more than 70% of the cells
HeLa = assay: MTS proliferation assay, HeLa; type: cell-based, human; conditions: 72 h incubation, read-out: MTS proliferation assay IC 50 HeLa
Procedure, shortened: (§2)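 Human lines, EGFP-transfected or not, grow in RPMI-1640 plus 5% or 10% FCS and 2-mercaptoethanol. They receive test compound for 72 h at final concentrations of 10, 3, 1 and 0.3 μM, and MTS conversion is measured at 492 nm.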

Jurkat = assay: MTS proliferation assay, Jurkat; type: cell-based, human; conditions: 72 h incubation, read-out: MTS proliferation assay IC 50 Jurkat
Procedure, shortened: as §2

MRC5 = assay: MTS proliferation assay, MRC5; type: cell-based; conditions: MRC5, 72 h incubation, read-out: MTS proliferation assay IC 50 MRC5
Procedure, shortened: as §1

HT1080 = assay: MTS proliferation assay, HT1080; type: cell-based, human; conditions: HT1080, 72 h incubation, read-out: MTS proliferation assay IC 50 HT1080
Procedure, shortened: as §2

Row | Structure (SMILES) | pIC50 (HeLa) | pIC50 (Jily) | Hoechst 33342 nuclear staining score ([1]; H460, conc 0.01 μm) | Hoechst 33342 nuclear staining score ([1]; H460, conc 0.1 μm) | Hoechst 33342 nuclear staining score ([1]; H460, conc 1 μm) | Hoechst 33342 nuclear staining score ([1]; HeLa, conc 0.01 μm) | Hoechst 33342 nuclear staining score ([1]; HeLa, conc 0.1 μm) | Hoechst 33342 nuclear staining score ([1]; HeLa, conc 1 μm) | Hoechst 33342 nuclear staining score ([1]; Jily, conc 0.01 μm) | Hoechst 33342 nuclear staining score ([1]; Jily, conc 0.1 μm) | Hoechst 33342 nuclear staining score ([1]; Jily, conc 1 μm) | Hoechst 33342 nuclear staining score ([1]; Jurkat, conc 0.01 μm) | Hoechst 33342 nuclear staining score ([1]; Jurkat, conc 0.1 μm) | Hoechst 33342 nuclear staining score ([1]; Jurkat, conc 1 μm) | Hoechst 33342 nuclear staining score ([1]; MRC5, conc 0.01 μm) | Hoechst 33342 nuclear staining score ([1]; MRC5, conc 0.1 μm) | Hoechst 33342 nuclear staining score ([1]; MRC5, conc 1 μm) | Hoechst 33342 nuclear staining score ([1]; PBLs, conc 0.01 μm) | Hoechst 33342 nuclear staining score ([1]; PBLs, conc 0.1 μm) | Hoechst 33342 nuclear staining score ([1]; PBLs, conc 1 μm) | also measured
1 | Nc1cc(C(=O)Cn2c(-c3nonc3N)nc3ccccc32)ccc1Cl [Example 14, 4-[1-(3-Amino-4-chlorophenacyl)-1H-benzimidazol-2-yl]-furazan-3-ylamine] |  | 7.00 to 8.00 | 0 | 2 (score 2 relating to strong activity comprising more than 70% of the cells) | 2 (score 2 relating to strong activity comprising more than 70% of the cells) | 0 | 1 (1 relating to weak activity comprising less than 70% of the cells) | 2 (score 2 relating to strong activity comprising more than 70% of the cells) | 0 | 2 (score 2 relating to strong activity comprising more than 70% of the cells) | 2 (score 2 relating to strong activity comprising more than 70% of the cells) | 0 | 2 (score 2 relating to strong activity comprising more than 70% of the cells) | 2 (score 2 relating to strong activity comprising more than 70% of the cells) | 0 | 1 (1 relating to weak activity comprising less than 70% of the cells) | 2 (score 2 relating to strong activity comprising more than 70% of the cells) | 0 | 0 | 0 | pIC50 (HeLa; Homo sapiens): 7.00 to 8.00; pIC50 (Jurkat; Homo sapiens): 7.00 to 8.00; pIC50 (MRC5; Homo sapiens): 7.00 to 8.00; pIC50 (HT1080; Homo sapiens, HT-1080): 7.00 to 8.00
2 | COC(=O)CCNc1nonc1-c1nc2ccccc2n1CC(=O)c1ccc(Cl)cc1 [Example 9, 4-[1-(4-Chlorophenacyl)-1H-benzimidazol-2-yl]-furazan-3-yl-N-(2-methoxycarbonylethyl)-amine] |  | 6.00 to 7.00 | 0 | 0 | 0 | 0 | 0 | 2 (score 2 relating to strong activity comprising more than 70% of the cells) | 0 | 0 | 2 (score 2 relating to strong activity comprising more than 70% of the cells) | 0 | 0 | 2 (score 2 relating to strong activity comprising more than 70% of the cells) | 0 | 0 | 2 (score 2 relating to strong activity comprising more than 70% of the cells) | 0 | 0 | 2 (score 2 relating to strong activity comprising more than 70% of the cells) | pIC50 (HeLa; Homo sapiens): 6.00 to 7.00; pIC50 (Jurkat; Homo sapiens): 6.00 to 7.00; pIC50 (MRC5; Homo sapiens): 6.00 to 7.00; pIC50 (HT1080; Homo sapiens, HT-1080): 6.00 to 7.00
3 | COc1ccc(C(=O)Cn2c(-c3nonc3NCCC#N)nc3ccccc32)cc1N [Example 69] | 6.00 to 7.00 | 6.00 to 7.00 | 0 | 0 | 2 (score 2 relating to strong activity comprising more than 70% of the cells) | 0 | 0 | 2 (score 2 relating to strong activity comprising more than 70% of the cells) | 0 | 1 (1 relating to weak activity comprising less than 70% of the cells) | 2 (score 2 relating to strong activity comprising more than 70% of the cells) | 0 | 1 (1 relating to weak activity comprising less than 70% of the cells) | 2 (score 2 relating to strong activity comprising more than 70% of the cells) | 0 | 0 | 1 (1 relating to weak activity comprising less than 70% of the cells) | 0 | 0 | 0 | pIC50 (Jurkat): 7.00 to 8.00; pIC50 (MRC5): 6.00 to 7.00; pIC50 (HT1080): 6.00 to 7.00
4 | COCCOc1ccc(C(=O)Cn2c(-c3nonc3N)nc3ccccc32)cc1 [Example 77] | 6.00 to 7.00 | 6.00 to 7.00 | 0 | 0 | 2 (score 2 relating to strong activity comprising more than 70% of the cells) | 0 | 0 | 2 (score 2 relating to strong activity comprising more than 70% of the cells) | 0 | 0 | 2 (score 2 relating to strong activity comprising more than 70% of the cells) | 0 | 0 | 2 (score 2 relating to strong activity comprising more than 70% of the cells) | 0 | 0 | 1 (1 relating to weak activity comprising less than 70% of the cells) | 0 | 0 | 0 | pIC50 (Jurkat): 6.00 to 7.00; pIC50 (MRC5): 6.00 to 7.00; pIC50 (HT1080): 6.00 to 7.00

Continued, in another order:

Row | pIC50 (HeLa) | Structure (SMILES) | pIC50 (Jily) | Hoechst 33342 nuclear staining score ([1]; H460, conc 0.01 μm) | Hoechst 33342 nuclear staining score ([1]; H460, conc 0.1 μm) | Hoechst 33342 nuclear staining score ([1]; H460, conc 1 μm) | Hoechst 33342 nuclear staining score ([1]; HeLa, conc 0.01 μm) | Hoechst 33342 nuclear staining score ([1]; HeLa, conc 0.1 μm) | Hoechst 33342 nuclear staining score ([1]; HeLa, conc 1 μm) | Hoechst 33342 nuclear staining score ([1]; Jily, conc 0.01 μm) | Hoechst 33342 nuclear staining score ([1]; Jily, conc 0.1 μm) | Hoechst 33342 nuclear staining score ([1]; Jily, conc 1 μm) | Hoechst 33342 nuclear staining score ([1]; Jurkat, conc 0.01 μm) | Hoechst 33342 nuclear staining score ([1]; Jurkat, conc 0.1 μm) | Hoechst 33342 nuclear staining score ([1]; Jurkat, conc 1 μm) | Hoechst 33342 nuclear staining score ([1]; MRC5, conc 0.01 μm) | Hoechst 33342 nuclear staining score ([1]; MRC5, conc 0.1 μm) | Hoechst 33342 nuclear staining score ([1]; MRC5, conc 1 μm) | Hoechst 33342 nuclear staining score ([1]; PBLs, conc 0.01 μm) | Hoechst 33342 nuclear staining score ([1]; PBLs, conc 0.1 μm) | Hoechst 33342 nuclear staining score ([1]; PBLs, conc 1 μm) | also measured
5 | 6.00 to 7.00 | COc1ccc(OCn2c(-c3nonc3N)nc3ccccc32)cc1 [Example 90] | 6.00 to 7.00 |  |  |  | 0 | 0 | 1 (1 relating to weak activity comprising less than 70% of the cells) | 0 | 0 | 1 (1 relating to weak activity comprising less than 70% of the cells) | 0 | 0 | 2 (score 2 relating to strong activity comprising more than 70% of the cells) | 0 | 0 | 1 (1 relating to weak activity comprising less than 70% of the cells) | 0 | 0 | 0 | pIC50 (Jurkat): 6.00 to 7.00; pIC50 (MRC5): 6.00 to 7.00; pIC50 (HT1080): 6.00 to 7.00
6 | 7.00 to 8.00 | N#CCCNc1nonc1-c1nc2ccccc2n1COc1ccc(Br)cc1 [Example 94] | 7.00 to 8.00 | 0 | 2 (score 2 relating to strong activity comprising more than 70% of the cells) | 2 (score 2 relating to strong activity comprising more than 70% of the cells) | 0 | 1 (1 relating to weak activity comprising less than 70% of the cells) | 2 (score 2 relating to strong activity comprising more than 70% of the cells) | 0 | 2 (score 2 relating to strong activity comprising more than 70% of the cells) | 2 (score 2 relating to strong activity comprising more than 70% of the cells) | 0 | 2 (score 2 relating to strong activity comprising more than 70% of the cells) | 2 (score 2 relating to strong activity comprising more than 70% of the cells) | 0 | 0 | 2 (score 2 relating to strong activity comprising more than 70% of the cells) | 0 | 0 | 0 | pIC50 (Jurkat): 7.00 to 8.00; pIC50 (MRC5): 6.00 to 7.00; pIC50 (HT1080): 7.00 to 8.00
